Measurements taken from patent US12440476B2, “Agents that target telomerase reverse transcriptase (TERT) for treating cancer and sensitizing cancer cells to genotoxic therapy” (Northwestern University, priority 2022, dated 2025).

Legend:
[1] = system: MCF7 cells; assay: Clonogenic survival after irradiation (radiosensitivity); format: cell-based, human; settings: MCF7 cells; NU-1 0.5 μM, BIBR 1532 10 μM, MST-312 1 μM for 1 h prior to IR; 2 Gy
Method: (§1) To assess radiosensitivity, MCF7, Saos-2, or CT26 cells were seeded in 6-well plates at 100 cells per well in triplicate, allowed to attach overnight and treated with DMSO or TERT inhibitors at subtoxic concentrations for 1 h prior to IR. MCF7 cells were treated with 0.5 μM NU-1, 10 μM BIBR 1532, or 1 μM MST-312, Saos-2 cells with 1 μM NU-1 or 20 μM BIBR 1532 and CT26 cells with 1 μM NU-1, 20 μM BIBR 1532 or 2 μM MST-312. Doses of 0, 1, 2, 3, 4, or 5 Gy were applied using a GammaCell ^60Co γ-ray source (Nordion) at a dose rate of 7.09 cGy/sec. After that MCF7 and Saos-2 cells were cultured for 3 weeks and CT26 for 2 weeks, then fixed and stained with crystal violet. Colonies of at least 50 cells were counted. Data from three independent biological replicates were acquired. The surviving fraction (SF) was calculated using the following formula: […]

[2] = system: Saos-2 cells; assay: as above; format: cell-based, human; settings: NU-1 1 μM
Method: as §1

[3] = system: CT26 cells; assay: as above; format: cell-based, mouse; settings: for Sensitization of CT26 cells to radiation: non-toxic doses; for Mean SF2 (surviving fraction at 2 Gy): CT26 cells, NU-1 1 μM, BIBR 1532 20 μM, MST-312 2 μM for 1 h prior to IR
Method: as §1

[4] = system: CT26 cells; assay: Clonogenicity assay (inhibitor alone); format: cell-based, mouse; settings: 1 μM NU-1, 2 μM MST, 20 μM BIBR
Method: MCF7, Saos-2, or CT26 cells were seeded in 6-well plates at 100 cells per well in triplicate and allowed to attach overnight. MCF7 or CT26 cells were then treated with DMSO vehicle or TERT inhibitors in final concentration of 0.25, 0.5, 0.75, 1, 2 μM for NU-1, 2.5, 5, 7.5, 10, 20 μM for BIBR 1532, or 1, 2, 3, 4, 5 μM for MST-312. Saos-2 cells were treated with DMSO vehicle or TERT inhibitors in final concentration of 0.25, 0.5, 0.75, 1, 2 μM for NU-1 or 2.5, 5, 10, 20, 40 μM for BIBR 1532. The final volume of cell culture medium was 3 mL per well. MCF7 and Saos-2 cells were continuously cultured for 3 weeks and CT26 for 2 weeks in the presence of TERT inhibitors, fixed in methanol for 5 min, then stained with 0.5% crystal violet for 10 min at room temperature. After washing with water, the plates were dried at room temperature and imaged with an iBright Imaging System (Thermo Fisher Scientific).

[5] = system: CT26 cells; assay: Senescence-associated beta-galactosidase (SA-β-Gal) assay; format: cell-based, mouse; settings: non-toxic doses, 10 Gy, 5 days
Method: (§2) MCF7, Saos-2, or CT26 cells were seeded at 3×10^4 per well in 6-well plates and allowed to attach to plate overnight. For TERT inhibition, MCF7 cells were treated with DMSO vehicle, NU-2 (0.5 μM), NU-1 (0.5 μM), chrolactomycin (0.5 μM), BIBR 1532 (10 μM), or MST-312 (1 μM) for 1 h prior to IR, Saos-2 cells were treated with DMSO vehicle, NU-2 (1 μM), NU-1 (1 μM), chrolactomycin (1 μM), BIBR 1532 (20 μM), or MST-312 (1 μM) for 1 h prior to IR, and CT26 cells were treated with MSO vehicle, NU-2 (1 μM), NU-1 (1 μM), chrolactomycin (1 μM), BIBR 1532 (20 μM), or MST-312 (2 μM) for 1 h prior to IR. Then MCF7 and Saos-2 cells were irradiated with 0 or 6 Gy and CT26 cells with 0 or 10 Gy. After IR, MCF7 and Saos-2 cells were continuously cultured for 7 days and CT26 for 5 days, then fixed in 2% PFA and stained with staining buffer (1 mg/ml X-Gal (Golden Bio), 40 mM citric acid/sodium phosphate, 150 mM NaCl, 2 mM MgCl2, 3.3 mM K3[Fe(CN)6], 3.3 mM K4[Fe(CN)6], pH=6) for 16 h at 37° C., then washed with warm PBS three times and imaged in PBS within a week. Images were captured on a Zeiss Axiovert 200M microscope with a 20× Plan-NeoFluar objective and Axiocam digital camera. SA-β-Gal-positive and -negative cells were counted in more than 5 fields, yielding an average percentage indicated on each SA-β-Gal image as mean±SD. Three replicates were performed.
To examine the roles for STING, CT26 cells were seeded at 2×10^4 per well in 12-well plates and allowed to attach overnight. STING inhibitor C178 (0 or 4 μM) was added, followed by the addition of DMSO vehicle, NU-1 (1 μM), MST-312 (2 μM) or chrolactomycin (1 μM) for 1 h prior to 0 or 10 Gy. CT26 cells were cultured for 5 days, surviving cells were washed twice in PBS and cultured in fresh immune cell culture medium overnight. The CT26 cells were then cocultured with BMDCs for 12-16 h at a 1:2 ratio, and BMDCs were collected and analyzed after coculturing, as described above.

[6] = system: MCF7 cells; assay: as above; format: cell-based, human
Method: as §2, with “For TERT inhibition, MCF7 cells were treated with DMSO vehicle, NU-2 (0.5 μM), NU-1 (0.5 μM), chrolactomycin (0.5 μM), BIBR 1532 (10 μM), or MST-312 (1 μM) for 1 h prior to IR, Saos-2 cells were treated with DMSO vehicle, NU-2 (1 μM), NU-1 (1 μM), chrolactomycin (1 μM), BIBR 1532 (20 μM), or MST-312 (1 μM) for 1 h prior to IR, and CT26 cells were treated with MSO vehicle, NU-2 (1 μM), NU-1 (1 μM), chrolactomycin (1 μM), BIBR 1532 (20 μM), or MST-312 (2 μM) for 1 h prior to IR.” left out

[7] = system: MCF7-FUCCI cells; assay: Time-lapse live-cell analysis of cell cycle; format: cell-based, human; settings: 0.5 μM for 1 h, then 6 Gy, 6 days
Method: MCF7-FUCCI cells were seeded at 3×10^4 per well in 6-well plates, allowed to attach overnight, then treated with 0.5 μM NU-2 control, NU-1 or chrolactomycin for 1 h, followed by 6 Gy. Then, live-cell imaging was conducted using the IncuCyteS3. Phase contrast along with green and red channels were acquired at 20× magnification with scanning every 2 h for 6 days. 16 non-overlapping fields were captured for each well. Representative consecutive images were used to create the movies using Fiji (Schindelin et al., 2012).

[8] = system: CD8+ T cells; assay: In vitro T cell priming assay (CFSE dilution); format: cell-based, mouse; settings: DCs stimulated by inhibitor treated and irradiated (10 Gy) CT26 cells; 5 days; NU-1 1 μM, MST 2 μM
Method: To evaluate effects of TERT on tumor immunogenicity, CT26 cells were seeded at […] per well in 12-well plates, allowed to attach overnight, and then treated with DMSO, NU-1 (1 μM), or MST-312 (2 μM) for 1 h, followed by 0 or 10 Gy. 5 days after IR, the media were removed, cells washed with PBS, and fresh immune cell culture medium added. CT26 cells were then cultured overnight, followed by coculturing with immature BMDCs for 12-16 h at a 1:2 ratio. After coculture, the suspension BMDCs were collected into round bottom FACS tubes, washed with PBS, and stained with Zombie yellow (1:1000, BioLegend) for 10 min at room temperature. […] After PBS washing, cells were resuspended in 300 μL Cell Staining Buffer and analyzed using a BD Fortessa 4-15 HTS Flow cytometer within 2 hours. Data were then analyzed by FlowJo software. […]
Splenocytes isolated from CT26 immunized mice were stained with 0.5 μM carboxyfluorescein succinimidyl ester (CFSE) (Thermo Fisher Scientific, Cat #C34554) for 10 min at room temperature (Quah et al., 2007). […] Cells were analyzed using a BD Fortessa 4-15 HTS flow cytometer and FlowJo software. […]

| Structure (SMILES) | Mean SF2 (surviving fraction at 2 Gy) [1] | Radiosensitization in clonogenic survival assay ([2]; Saos-2 (telomerase negative), BIBR 20 μM) | Mean SF2 (surviving fraction at 2 Gy) ([2]; Saos-2 cells, BIBR 1532 20 μM for 1 h prior to IR, 2 Gy) | Sensitization of CT26 cells to radiation [3] | Mean SF2 (surviving fraction at 2 Gy) [3] | Tolerance in clonogenic assay (inhibitor alone) [4] | Senescence induction by IR [5] | Enhancement of senescence after IR at low concentration ([6]; 50 nM, 7 days after IR) | Surviving cells arrested with G1 marker expression and senescent morphology [7] | Proliferating CD8+ T cells [8] | SA-β-Gal+ cells ([6]; 7 days after IR (6 Gy)) |
| --- | --- | --- | --- | --- | --- | --- | --- | --- | --- | --- | --- |
| C/C(=C\C(=O)Nc1ccccc1C(=O)O)c1ccc2ccccc2c1 [BIBR 1532] | 0.256 | Neither NU-1 nor BIBR displayed radiosensitization | 0.580 | had no similar effects | 0.727 | non-toxic | had no similar effects | – | – | – | – |
| C=C1C(=O)[C@]2(OC)C(=O)O[C@@]34C[C@H](C)C(C(=O)O)=C[C@@H]3CCC[C@@H](C)C[C@@H](C)[C@H]1O[C@H]24 [CHRO, chrolactomycin, reference compound] | – | – | – | – | – | – | – | sufficient to enhance senescence after IR | ~80% | – | – |
| O=C(Nc1cccc(NC(=O)c2cccc(O)c2O)c1)c1cccc(O)c1O [MST-312] | 0.245 | – | – | sensitized CT26 cells to radiation | 0.407 | tolerated | enhanced senescence induction by IR | – | – | 30.4% | – |
| COC(=O)[C@@]1(C)C(=O)C[C@@H](C)O[C@H]1CCc1cn(Cc2ccc(F)cc2F)nn1 [NU-2] | – | – | – | – | – | – | – | – | ~40% | – | ~34% |
